This data set in a line: In house cohesion test of pastes (mass loss after sintering and immersion in water). The note with it: for Effect of plasticiser in liquid carrier on paste cohesion: PLGA 95:5/PEG400/CS pellets, FIG. 4. Format: physicochemical. As to the method:
Pastes were prepared by mixing particles with a liquid carrier and their setting was assessed using an ‘in house’ cohesion test. Briefly, following paste sintering, aluminium foils containing the pastes were placed onto a sieve mesh and immersed to a depth of around 1 cm of water for 1 minute (FIG. 1). Afterwards, they were carefully removed from the sieve. The samples were freeze-dried and weighed so that mass loss could be estimated.
A 355 μm sieve (Endecotts, BS410/1986) was placed on to its dedicated collection tray. • 2×100 mg of particles were manually mixed in an aluminium foil (4×4 cm circa) with 70 μl of each liquid carrier. • The obtained pastes were left to sinter in a sealed plastic bag with humidity >90% for different times. • Following sintering at RT or 37° C. in a humidified environment (>90% RH), the aluminium foils containing the pastes were placed onto the sieve mesh. • A constant, gentle, circa 7 ml/sec flow of water (Millipore, Direct-Q® 3 UV) was applied to the sieve mesh, until the samples became immersed in circa 1 cm of water. • Following immersion, samples were allowed to remain immersed in the head of water for circa 1 minute. • After the 1 minute, the sieve was removed from the sieve tray and the aluminium foils containing the samples were carefully removed from the sieve. • The samples with the aluminium foil were freeze-dried and weighed so that mass loss could be estimated. • The sieve tray (which was still filled with water) was visually inspected for the presence of particles that may have been lost from the samples during.

Where a name gives a salt, the structure may show the parent alone.

As for `CCOC(=O)CC(O)(CC(=O)OCC)C(=O)OCC` [TEC, TriEthyl Citrate], the “Effect of plasticiser in liquid carrier on paste cohesion” value is listed as “behave in a similar way”.

Turning to `CC(=O)OCC(COC(C)=O)OC(C)=O` [TA, triacetin], the “Effect of plasticiser in liquid carrier on paste cohesion” value is given as “behave in a similar way”.

On to `CCO` [ethanol, Ethanol], for which the “Importance of plasticiser in liquid carrier for paste setting” value (PLGA50:50/PEG400/SIM pellets, sintering 10 to 60 min at 37° C., FIG. 6) was “not important for paste setting”.

The values above are taken from patent US20210290818A1, “SCAFFOLDING MATERIAL, METHODS AND USES” (LOCATE THERAPEUTICS LIMITED, priority 2016, published 2021).
